Activity and MIC data for 14 compounds are collected here from ChEMBL document CHEMBL1649364, “Synthesis and antifungal activity of some substituted phenothiazines and related compounds” (2011).

One assay deals with Aspergillus niger. Nature of the assay: Antifungal activity against Aspergillus niger by microdilution test. It counts as functional.
A short description of assay [1]: Antifungal activity against Aspergillus fumigates by microdilution test. It counts as functional.
A short description of assay [2]: Antifungal activity against Exophiala xenobiotica by microdilution test. It counts as functional.
A further assay relates to Pichia kudriavzevii. Nature of the assay: Antifungal activity against Candida krusei by microdilution test. The class given is functional.
In assay [3] the test system is Meyerozyma guilliermondii. Nature of the assay: Antifungal activity against Candida guilliermondii by microdilution test. The class given is functional.
The subject of the next assay is Aspergillus terreus. Nature of the assay: Antifungal activity against Aspergillus terreus by microdilution test. The class given is functional.
The next assay relates to Exophiala spinifera. Nature of the assay: Antifungal activity against Exophiala spinifera by microdilution test. The class given is functional.
For another assay, the system named is Aspergillus nidulans. Nature of the assay: Antifungal activity against Aspergillus nidulans by microdilution test. The class given is functional, organism-based.
A further assay deals with Nakaseomyces glabratus. Nature of the assay: Antifungal activity against Candida glabrata by microdilution test. It counts as functional.
For a further assay, the system named is Cryptococcus neoformans. Nature of the assay: Antifungal activity against Cryptococcus neoformans by microdilution test. It counts as functional.
A short description of assay [4]: Antifungal activity against Exophiala oligosperma by microdilution test. It counts as functional.
The test system of a further assay is Candida albicans. Nature of the assay: Antifungal activity against Candida albicans by microdilution test. The class given is functional.
The nature of assay [5]: Antifungal activity against Cladophialophora carrionii by microdilution test. The class given is functional.
For another assay, the system named is Candida parapsilosis. Nature of the assay: Antifungal activity against Candida parapsilosis by microdilution test. The class given is functional. The following applies: for MIC: Lodderomyces parapsilosis.
The next assay deals with Aspergillus flavus. Nature of the assay: Antifungal activity against Aspergillus flavus by microdilution test. It counts as functional.

In brackets after ≈: the same amount, converted by molar mass. Activity calls are given as the source filed them. No cut-off for these calls is given here. Some results are limits rather than exact numbers.

For the compound `O=C(CCl)N(c1ccccc1)c1ccccc1`, the result (in the assay with Aspergillus niger; in assay [1]; in assay [2]; with Pichia kudriavzevii; in [3]; with Aspergillus terreus) was inactive. Besides, the result (in the assay on Exophiala spinifera; in the assay with Aspergillus nidulans; in the assay with Nakaseomyces glabratus; with Cryptococcus neoformans; in [4]; in the assay with Candida albicans) was inactive. Moreover, the outcome (in [5]; with Candida parapsilosis; with Aspergillus flavus) was inactive.
Consider `CC(CN1c2ccccc2Sc2ccccc21)N(C)C` (configuration not stated) [PROMETHAZINE], for which the MIC was 256 mg/L (≈ 900 µM) in the assay with Aspergillus niger; 256 mg/L (≈ 900 µM) in assay [1]; 256 mg/L (≈ 900 µM) in assay [2]; 256 mg/L (≈ 900 µM) with Pichia kudriavzevii; 512 mg/L (≈ 1800 µM) in assay [3]; 256 mg/L (≈ 900 µM) in the assay on Aspergillus terreus. The MIC against Exophiala spinifera was 256 mg/L (≈ 900 µM); in the assay with Nakaseomyces glabratus, more than 512 mg/L; in the assay on Cryptococcus neoformans it was 256 mg/L (≈ 900 µM); in [4] it was 256 mg/L (≈ 900 µM); with Candida albicans, more than 512 mg/L; in assay [5] it was 512 mg/L (≈ 1800 µM). Besides, the MIC stood at 512 mg/L (≈ 1800 µM) against Candida parapsilosis and 256 mg/L (≈ 900 µM) against Aspergillus flavus.
Take `CN(C)S(=O)(=O)c1ccc2c(c1)N(CCCN1CCC(CCO)CC1)c1ccccc1S2` [PIPOTIAZINE]: the MIC was more than 512 mg/L in the assay on Aspergillus niger; more than 512 mg/L in assay [1]; 512 mg/L (≈ 1080 µM) in assay [2]; 512 mg/L (≈ 1080 µM) in the assay with Pichia kudriavzevii; 256 mg/L (≈ 538 µM) in [3]; more than 512 mg/L in the assay on Aspergillus terreus. Also, the MIC was 256 mg/L (≈ 538 µM) in the assay on Exophiala spinifera; 256 mg/L (≈ 538 µM) in the assay with Nakaseomyces glabratus; 256 mg/L (≈ 538 µM) against Cryptococcus neoformans; 512 mg/L (≈ 1080 µM) in [4]; 256 mg/L (≈ 538 µM) in the assay on Candida albicans; 256 mg/L (≈ 538 µM) in [5]. Further, the figures for the MIC in the assay with Candida parapsilosis and against Aspergillus flavus were 256 mg/L (≈ 538 µM) and more than 512 mg/L, respectively.
As to `OCCC1CCNCC1`, the outcome (in the assay with Aspergillus niger; in [1]; in assay [2]; in the assay on Pichia kudriavzevii; in assay [3]; in the assay on Aspergillus terreus) was inactive. The result (in the assay with Exophiala spinifera; in the assay with Aspergillus nidulans; with Nakaseomyces glabratus; in the assay on Cryptococcus neoformans; in assay [4]; in the assay with Candida albicans) was inactive. For the same compound, the result (in assay [5]; in the assay with Candida parapsilosis; in the assay on Aspergillus flavus) was inactive.
`ClCCCN1c2ccccc2Sc2ccccc21`: the result (in the assay on Aspergillus niger; in [1]; in assay [2]; in the assay with Pichia kudriavzevii; in [3]; in the assay with Aspergillus terreus) was inactive. Also, the outcome (in the assay with Exophiala spinifera; in the assay on Aspergillus nidulans; in the assay on Nakaseomyces glabratus; in the assay on Cryptococcus neoformans; in assay [4]; in the assay with Candida albicans) was inactive. In addition, the result (in assay [5]; in the assay on Candida parapsilosis; in the assay with Aspergillus flavus) was inactive.
As to `CC(=O)N1c2ccccc2Sc2ccccc21`, the result (in the assay on Aspergillus niger; in assay [1]; in [2]; in the assay on Pichia kudriavzevii; in assay [3]; in the assay on Aspergillus terreus) was inactive. The result (in the assay with Exophiala spinifera; in the assay with Aspergillus nidulans; in the assay on Nakaseomyces glabratus; with Cryptococcus neoformans; in assay [4]; in the assay with Candida albicans) was inactive. The outcome (in [5]; in the assay on Candida parapsilosis; with Aspergillus flavus) was inactive.
Take `C[C@@H]1[C@H](O)[C@@H](C)/C=C/C=C/C=C/C=C/C=C/C=C/C=C/[C@H](O[C@@H]2O[C@H](C)[C@@H](O)[C@H](N)[C@@H]2O)C[C@@H]2O[C@](O)(C[C@@H](O)C[C@@H](O)[C@H](O)CC[C@@H](O)C[C@@H](O)CC(=O)O[C@H]1C)C[C@H](O)[C@H]2C(=O)O` [AMPHOTERICIN B]: the MIC was found to be 0.5 mg/L (≈ 0.541 µM) in the assay on Aspergillus niger; 0.5 mg/L (≈ 0.541 µM) in [1]; 1 mg/L (≈ 1.08 µM) in assay [2]; 0.25 mg/L (≈ 0.271 µM) with Pichia kudriavzevii; 1 mg/L (≈ 1.08 µM) in [3]; 2 mg/L (≈ 2.16 µM) against Aspergillus terreus. The MIC turned out to be 1 mg/L (≈ 1.08 µM) in the assay with Exophiala spinifera; 0.25 mg/L (≈ 0.271 µM) against Nakaseomyces glabratus; 0.5 mg/L (≈ 0.541 µM) against Candida albicans; 0.5 mg/L (≈ 0.541 µM) in the assay with Candida parapsilosis; 0.25 mg/L (≈ 0.271 µM) against Aspergillus flavus.
Consider `O=C(CCl)N1c2ccccc2Oc2ccccc21`, for which the outcome (in the assay with Aspergillus niger; in assay [1]; in assay [2]; in the assay with Pichia kudriavzevii; in [3]; in the assay with Aspergillus terreus) was inactive. Also, the outcome (in the assay with Exophiala spinifera; in the assay on Aspergillus nidulans; in the assay on Nakaseomyces glabratus; in the assay on Cryptococcus neoformans; in assay [4]; with Candida albicans) was inactive. Further, the outcome (in assay [5]; in the assay with Candida parapsilosis; in the assay with Aspergillus flavus) was inactive.
`O=C(CCl)Nc1ccccc1Sc1ccccc1`: the result (in the assay on Aspergillus niger; in assay [1]; in assay [2]; with Pichia kudriavzevii; in assay [3]; in the assay on Aspergillus terreus) was inactive. In addition, the outcome (in the assay with Exophiala spinifera; in the assay on Aspergillus nidulans; with Nakaseomyces glabratus; with Cryptococcus neoformans; in [4]; in the assay on Candida albicans) was inactive. Also, the result (in assay [5]; in the assay on Candida parapsilosis; in the assay with Aspergillus flavus) was inactive.
In the case of `OC(Cn1cncn1)(Cn1cncn1)c1ccc(F)cc1F` [FLUCONAZOLE], the MIC was 16 mg/L (≈ 52.2 µM) in the assay on Aspergillus niger; 16 mg/L (≈ 52.2 µM) in [1]; 16 mg/L (≈ 52.2 µM) in [2]; 64 mg/L (≈ 209 µM) in the assay with Pichia kudriavzevii; 4 mg/L (≈ 13.1 µM) in [3]; 16 mg/L (≈ 52.2 µM) against Aspergillus terreus. Also, the minimum inhibitory concentration (MIC) against Exophiala spinifera was found to be 16 mg/L (≈ 52.2 µM); in the assay on Nakaseomyces glabratus it was 1 mg/L (≈ 3.27 µM); against Cryptococcus neoformans, 8 mg/L (≈ 26.1 µM); in the assay on Candida albicans, 2 mg/L (≈ 6.53 µM); in the assay on Candida parapsilosis, 1 mg/L (≈ 3.27 µM); in the assay on Aspergillus flavus, 16 mg/L (≈ 52.2 µM).
As to `CN(C/C=C/C#CC(C)(C)C)Cc1cccc2ccccc12` [TERBINAFINE], the MIC worked out at 0.125 mg/L (≈ 0.429 µM) against Aspergillus niger; 0.25 mg/L (≈ 0.858 µM) in [1]; 0.06 mg/L (≈ 0.206 µM) in [2]; 0.06 mg/L (≈ 0.206 µM) in the assay with Pichia kudriavzevii; 0.5 mg/L (≈ 1.72 µM) in assay [3]; 0.06 mg/L (≈ 0.206 µM) against Aspergillus terreus. For the same compound, the MIC in the assay with Exophiala spinifera worked out at 0.06 mg/L (≈ 0.206 µM); against Nakaseomyces glabratus, 0.06 mg/L (≈ 0.206 µM); with Cryptococcus neoformans it was 0.25 mg/L (≈ 0.858 µM); in assay [4] it was 0.06 mg/L (≈ 0.206 µM); with Candida albicans, 0.5 mg/L (≈ 1.72 µM); in assay [5], 0.25 mg/L (≈ 0.858 µM). Also, the minimal inhibitory concentration (MIC) in the assay with Candida parapsilosis came to 0.06 mg/L (≈ 0.206 µM); with Aspergillus flavus it was 0.25 mg/L (≈ 0.858 µM).
`Nc1nc(=O)[nH]cc1F` [FLUCYTOSINE]: the MIC came out at 0.5 mg/L (≈ 3.87 µM) against Aspergillus niger; 0.5 mg/L (≈ 3.87 µM) in assay [1]; 8 mg/L (≈ 62 µM) in [2]; 0.5 mg/L (≈ 3.87 µM) against Pichia kudriavzevii; 1 mg/L (≈ 7.75 µM) in [3]; 1 mg/L (≈ 7.75 µM) with Aspergillus terreus. The MIC in the assay on Exophiala spinifera was found to be 2 mg/L (≈ 15.5 µM); in the assay on Nakaseomyces glabratus, 1 mg/L (≈ 7.75 µM); in the assay on Cryptococcus neoformans, 0.5 mg/L (≈ 3.87 µM); in assay [4], 4 mg/L (≈ 31 µM); against Candida albicans it was 2 mg/L (≈ 15.5 µM); in assay [5], 1 mg/L (≈ 7.75 µM). The MIC against Candida parapsilosis was found to be 0.5 mg/L (≈ 3.87 µM); against Aspergillus flavus, 1 mg/L (≈ 7.75 µM).
For `CCC(C)n1ncn(-c2ccc(N3CCN(c4ccc(OCC5COC(Cn6cncn6)(c6ccc(Cl)cc6Cl)O5)cc4)CC3)cc2)c1=O` (configuration not stated) [ITRACONAZOLE], the MIC with Aspergillus niger amounted to 0.125 mg/L (≈ 0.177 µM); in assay [1] it was 0.25 mg/L (≈ 0.354 µM); in assay [2], 0.06 mg/L (≈ 0.085 µM); with Pichia kudriavzevii, 0.06 mg/L (≈ 0.085 µM); in assay [3], 0.5 mg/L (≈ 0.709 µM); with Aspergillus terreus, 0.125 mg/L (≈ 0.177 µM). The MIC worked out at 0.06 mg/L (≈ 0.085 µM) with Exophiala spinifera; 0.25 mg/L (≈ 0.354 µM) in the assay with Nakaseomyces glabratus; 0.25 mg/L (≈ 0.354 µM) against Cryptococcus neoformans; 0.125 mg/L (≈ 0.177 µM) in assay [4]; 0.125 mg/L (≈ 0.177 µM) against Candida albicans; 0.06 mg/L (≈ 0.085 µM) in assay [5]. In addition, the MIC in the assay on Candida parapsilosis and against Aspergillus flavus was 0.125 mg/L (≈ 0.177 µM) throughout.
On to `O=C(CCl)N1c2ccccc2Sc2ccccc21`, for which the MIC against Aspergillus niger came out at 2 mg/L (≈ 7.25 µM); in [1], 16 mg/L (≈ 58 µM); in [2], 16 mg/L (≈ 58 µM); in the assay on Pichia kudriavzevii, 32 mg/L (≈ 116 µM); in [3], 32 mg/L (≈ 116 µM); with Aspergillus terreus it was 16 mg/L (≈ 58 µM). Further, the MIC with Exophiala spinifera was 16 mg/L (≈ 58 µM); against Nakaseomyces glabratus, more than 512 mg/L; against Cryptococcus neoformans, 8 mg/L (≈ 29 µM); in assay [4], 16 mg/L (≈ 58 µM); against Candida albicans, 32 mg/L (≈ 116 µM); in assay [5], 4 mg/L (≈ 14.5 µM). Further, the MIC with Candida parapsilosis and in the assay on Aspergillus flavus was 32 mg/L (≈ 116 µM) in each case.
